Results taken from ChEMBL document CHEMBL1201861, “Genomics of Drug Sensitity in Cancer screening data, Wellcome Trust Sanger Institute”.

Columns and labels:
Test in all cases: cells
COLO-824 = format: functional, cell-based, Homo sapiens; conditions: Homo sapiens, COLO-824
Description: SANGER: Inhibition of human COLO-824 cell growth in a cell viability assay.

COR-L88 = format: functional, cell-based, Homo sapiens; conditions: Homo sapiens, COR-L88;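 also: growth inhibition of COR-L88 cells, read out with a cell viability assay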
Description: SANGER: Inhibition of human COR-L88 cell growth in a cell viability assay.

D-263MG = format: functional, cell-based, Homo sapiens; conditions: Homo sapiens, D-263MG
Description: SANGER: Inhibition of human D-263MG cell growth in a cell viability assay.

D-502MG = format: functional, cell-based, Homo sapiens; conditions: Homo sapiens, D-502MG
Description: SANGER: Inhibition of human D-502MG cell growth in a cell viability assay.

DJM-1 = format: functional, cell-based, Homo sapiens; conditions: Homo sapiens, DJM-1;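 also: growth inhibition of human DJM-1 cells, read out by a cell viability assay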
Description: SANGER: Inhibition of human DJM-1 cell growth in a cell viability assay.

ES6 = format: functional, cell-based; conditions: Homo sapiens;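 also: growth inhibition of human ES6 cells, read out with a cell viability assay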
Description: SANGER: Inhibition of human ES6 cell growth in a cell viability assay.

ES7 = format: functional, cell-based, Homo sapiens; conditions: Homo sapiens, ES7;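 also: growth inhibition of cultured human ES7 cells, read out as cell viability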
Description: SANGER: Inhibition of human ES7 cell growth in a cell viability assay.

ES8 = format: functional, cell-based, Homo sapiens; conditions: Homo sapiens, ES8;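 also: growth inhibition of human ES8 cells, read out with a cell viability assay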
Description: SANGER: Inhibition of human ES8 cell growth in a cell viability assay.

EW-1 = format: functional, cell-based, Homo sapiens; conditions: Homo sapiens, EW-1
Description: SANGER: Inhibition of human EW-1 cell growth in a cell viability assay.

EW-16 = format: functional, cell-based, Homo sapiens; conditions: Homo sapiens, EW-16;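 also: growth inhibition of human EW-16 cells, read out as cell viability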
Description: SANGER: Inhibition of human EW-16 cell growth in a cell viability assay.

GR-ST = format: functional, cell-based, Homo sapiens; conditions: Homo sapiens, GR-ST
Description: SANGER: Inhibition of human GR-ST cell growth in a cell viability assay.

HCC1187 = format: functional, cell-based, Homo sapiens; conditions: Homo sapiens, HCC1187;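 also: growth inhibition of HCC1187 cells, read out with a cell viability assay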
Description: SANGER: Inhibition of human HCC1187 cell growth in a cell viability assay.

HCE-T = format: functional, cell-based, Homo sapiens; conditions: Homo sapiens, HCE-T;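 also: cell viability assay read-out, reporting inhibition of HCE-T cell growth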
Description: SANGER: Inhibition of human HCE-T cell growth in a cell viability assay.

HH = format: functional, cell-based, Homo sapiens; conditions: Homo sapiens, HH
Description: SANGER: Inhibition of human HH cell growth in a cell viability assay.

K5 = format: functional, cell-based, Homo sapiens; conditions: Homo sapiens, K5
Description: SANGER: Inhibition of human K5 cell growth in a cell viability assay.

KARPAS-45 = format: functional, cell-based, Homo sapiens; conditions: Homo sapiens, KARPAS-45;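 also: inhibition of cell line growth, read out through a viability assay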
Description: SANGER: Inhibition of human KARPAS-45 cell growth in a cell viability assay.

LAN-6 = format: functional, cell-based, Homo sapiens; conditions: Homo sapiens, LAN-6;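 also: growth inhibition of LAN-6 cells, determined with a cell viability assay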
Description: SANGER: Inhibition of human LAN-6 cell growth in a cell viability assay.

LB771-HNC = format: functional, cell-based; conditions: Homo sapiens;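 also: growth inhibition of LB771-HNC human cells, read out with a cell viability assay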
Description: SANGER: Inhibition of human LB771-HNC cell growth in a cell viability assay.

LNCaP-Clone-FGC = format: functional, cell-based, Homo sapiens; conditions: Homo sapiens, LNCaP-Clone-FGC
Description: SANGER: Inhibition of human LNCaP-Clone-FGC cell growth in a cell viability assay.

LS-1034 = format: functional, cell-based, Homo sapiens; conditions: Homo sapiens, LS-1034
Description: SANGER: Inhibition of human LS-1034 cell growth in a cell viability assay.

ML-2 = format: functional, cell-based, Homo sapiens; conditions: Homo sapiens, ML-2;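 also: growth inhibition of ML-2 cells, measured with a cell viability readout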
Description: SANGER: Inhibition of human ML-2 cell growth in a cell viability assay.

MMAC-SF = format: functional, cell-based; conditions: Homo sapiens;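 also: growth inhibition of human MMAC-SF cells, read out with a cell viability assay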
Description: SANGER: Inhibition of human MMAC-SF cell growth in a cell viability assay.

MOLT-16 = format: functional, cell-based, Homo sapiens; conditions: Homo sapiens, MOLT-16;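 also: growth inhibition of human MOLT-16 cells, read out with a cell viability assay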
Description: SANGER: Inhibition of human MOLT-16 cell growth in a cell viability assay.

MZ2-MEL = format: functional, cell-based, Homo sapiens; conditions: Homo sapiens, MZ2-MEL;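 also: growth inhibition of MZ2-MEL cells read out with a cell viability assay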
Description: SANGER: Inhibition of human MZ2-MEL cell growth in a cell viability assay.

NB5 = format: functional, cell-based, Homo sapiens; conditions: Homo sapiens, NB5;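 also: growth inhibition of NB5 cells, read out as cell viability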
Description: SANGER: Inhibition of human NB5 cell growth in a cell viability assay.

NB69 = format: functional, cell-based, Homo sapiens; conditions: Homo sapiens, NB69;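 also: growth inhibition of NB69 cells, determined by a cell viability assay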
Description: SANGER: Inhibition of human NB69 cell growth in a cell viability assay.

NCI-H1155 = format: functional, cell-based, Homo sapiens; conditions: Homo sapiens, NCI-H1155;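 also: cell growth inhibition measured by a viability assay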
Description: SANGER: Inhibition of human NCI-H1155 cell growth in a cell viability assay.

NCI-H1304 = format: functional, cell-based, Homo sapiens; conditions: Homo sapiens, NCI-H1304;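 also: growth inhibition of the cancer cell line, measured in a cell viability assay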
Description: SANGER: Inhibition of human NCI-H1304 cell growth in a cell viability assay.

NCI-H1581 = format: functional, cell-based, Homo sapiens; conditions: Homo sapiens, NCI-H1581;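 also: cell growth inhibition read out by a viability assay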
Description: SANGER: Inhibition of human NCI-H1581 cell growth in a cell viability assay.

NCI-H1648 = format: functional, cell-based, Homo sapiens; conditions: Homo sapiens, NCI-H1648;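 also: cell viability assay measuring inhibition of NCI-H1648 cell growth, from the Sanger screening data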
Description: SANGER: Inhibition of human NCI-H1648 cell growth in a cell viability assay.

NCI-H720 = format: functional, cell-based, Homo sapiens; conditions: Homo sapiens, NCI-H720;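 also: growth inhibition of human NCI-H720 cells determined by a cell viability assay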
Description: SANGER: Inhibition of human NCI-H720 cell growth in a cell viability assay.

NCI-H82 = format: functional, cell-based, Homo sapiens; conditions: Homo sapiens, NCI-H82;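 also: growth inhibition of NCI-H82 cells, measured with a cell viability readout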
Description: SANGER: Inhibition of human NCI-H82 cell growth in a cell viability assay.

NMC-G1 = format: functional, cell-based, Homo sapiens; conditions: Homo sapiens, NMC-G1;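 also: growth inhibition of the NMC-G1 cell line, measured with a cell viability read-out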
Description: SANGER: Inhibition of human NMC-G1 cell growth in a cell viability assay.

OMC-1 = format: functional, cell-based, Homo sapiens; conditions: Homo sapiens, OMC-1;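 also: growth inhibition of the OMC-1 cell line, measured by a cell viability assay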
Description: SANGER: Inhibition of human OMC-1 cell growth in a cell viability assay.

P30-OHK = format: functional, cell-based, Homo sapiens; conditions: Homo sapiens, P30-OHK;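 also: growth inhibition of the P30-OHK cell line, read out with a cell viability assay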
Description: SANGER: Inhibition of human P30-OHK cell growth in a cell viability assay.

RPMI-8226 = format: functional, cell-based, Homo sapiens; conditions: Homo sapiens, RPMI-8226
Description: SANGER: Inhibition of human RPMI-8226 cell growth in a cell viability assay.

Ramos-2G6-4C10 = format: functional, cell-based, Homo sapiens; conditions: Homo sapiens, Ramos-2G6-4C10;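 also: growth inhibition of the cell line, measured by a cell viability read-out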
Description: SANGER: Inhibition of human Ramos-2G6-4C10 cell growth in a cell viability assay.

SBC-1 = format: functional, cell-based, Homo sapiens; conditions: Homo sapiens, SBC-1;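 also: cell viability assay measuring growth inhibition of the SBC-1 cell line, IC50 being the concentration that halves growth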
Description: SANGER: Inhibition of human SBC-1 cell growth in a cell viability assay.

SCH = format: functional, cell-based, Homo sapiens; conditions: Homo sapiens, SCH;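 also: growth inhibition of human SCH cells, read out in a cell viability assay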
Description: SANGER: Inhibition of human SCH cell growth in a cell viability assay.

SF-268 = format: functional, cell-based, Homo sapiens; conditions: Homo sapiens, SF-268;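 also: growth inhibition of SF-268 cells determined with a cell viability assay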
Description: SANGER: Inhibition of human SF268 cell growth in a cell viability assay.

SK-N-FI = format: functional, cell-based, Homo sapiens; conditions: Homo sapiens, SK-N-FI;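 also: cell viability assay measuring growth inhibition of human SK-N-FI cells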
Description: SANGER: Inhibition of human SK-N-FI cell growth in a cell viability assay.

SK-UT-1 = format: functional, cell-based, Homo sapiens; conditions: Homo sapiens, SK-UT-1;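 also: growth inhibition of SK-UT-1 cells, measured by a cell viability assay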
Description: SANGER: Inhibition of human SK-UT-1 cell growth in a cell viability assay.

SW872 = format: functional, cell-based, Homo sapiens; conditions: Homo sapiens, SW872;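 also: growth inhibition of SW872 cells, read out by a viability assay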
Description: SANGER: Inhibition of human SW872 cell growth in a cell viability assay.

A388 = format: functional, cell-based; conditions: Homo sapiens;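 also: growth inhibition of human A388 cells, read out with a cell viability assay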
Description: SANGER: Inhibition of human A388 cell growth in a cell viability assay.

ALL-PO = format: functional, cell-based, Homo sapiens; conditions: Homo sapiens, ALL-PO;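 also: growth inhibition of ALL-PO cells, read out by a cell viability assay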
Description: SANGER: Inhibition of human ALL-PO cell growth in a cell viability assay.

TE-6 = format: functional, cell-based, Homo sapiens; conditions: Homo sapiens, TE-6;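 also: growth inhibition of TE-6 cells, read out with a cell viability assay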
Description: SANGER: Inhibition of human TE-6 cell growth in a cell viability assay.

TE-9 = format: functional, cell-based, Homo sapiens; conditions: Homo sapiens, TE-9;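 also: cell growth inhibition, measured with a cell viability readout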
Description: SANGER: Inhibition of human TE-9 cell growth in a cell viability assay.

CAS-1 = format: functional, cell-based, Homo sapiens; conditions: Homo sapiens, CAS-1;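 also: growth inhibition of CAS-1 cells, measured with a cell viability assay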
Description: SANGER: Inhibition of human CAS-1 cell growth in a cell viability assay.

NC(=O)Nc1cc(-c2cccc(F)c2)sc1C(=O)N[C@H]1CCCNC1 [AZD-7762]
IC50 (COLO-824): > 2000 nM
IC50 (COR-L88): 365 nM
IC50 (D-263MG): 909 nM
IC50 (D-502MG): > 2000 nM
IC50 (DJM-1): 886 nM
IC50 (ES6): 442 nM
IC50 (ES7): 160 nM
IC50 (ES8): 99.2 nM
IC50 (EW-1): 189 nM
IC50 (EW-16): 538 nM
IC50 (GR-ST): 178 nM
IC50 (HCC1187): 967 nM
IC50 (HCE-T): 442 nM
IC50 (HH): 708 nM
IC50 (K5): 941 nM
IC50 (KARPAS-45): 168 nM
IC50 (LAN-6): 1080 nM
IC50 (LB771-HNC): 559 nM
IC50 (LNCaP-Clone-FGC): 1440 nM
IC50 (LS-1034): > 2000 nM
IC50 (ML-2): 125 nM
IC50 (MMAC-SF): > 2000 nM
IC50 (MOLT-16): 88.1 nM
IC50 (MZ2-MEL): > 2000 nM
IC50 (NB5): 797 nM
IC50 (NB69): 705 nM
IC50 (NCI-H1155): 739 nM
IC50 (NCI-H1304): > 2000 nM
IC50 (NCI-H1581): > 2000 nM
IC50 (NCI-H1648): > 2000 nM
IC50 (NCI-H720): 402 nM
IC50 (NCI-H82): > 2000 nM
IC50 (NMC-G1): 986 nM
IC50 (OMC-1): 575 nM
IC50 (P30-OHK): 132 nM
IC50 (RPMI-8226): 175 nM
IC50 (Ramos-2G6-4C10): 148 nM
IC50 (SBC-1): > 2000 nM
IC50 (SCH): 1330 nM
IC50 (SF-268): 881 nM
IC50 (SK-N-FI): 1490 nM
IC50 (SK-UT-1): 186 nM
IC50 (SW872): > 2000 nM
IC50 (A388): > 2000 nM
IC50 (ALL-PO): 242 nM
IC50 (TE-6): > 2000 nM
IC50 (TE-9): 1630 nM
IC50 (CAS-1): 1210 nM

NC(=O)c1ccc(N(C(N)=O)c2c(F)cccc2F)nc1-c1ccc(F)cc1F [VX-702]
IC50 (COLO-824): > 2000 nM
IC50 (COR-L88): 335 nM
IC50 (D-263MG): > 2000 nM
IC50 (D-502MG): > 2000 nM
IC50 (DJM-1): > 2000 nM
IC50 (ES6): > 2000 nM
IC50 (ES7): > 2000 nM
IC50 (ES8): > 2000 nM
IC50 (EW-1): > 2000 nM
IC50 (EW-16): > 2000 nM
IC50 (GR-ST): > 2000 nM
IC50 (HCC1187): > 2000 nM
IC50 (HCE-T): > 2000 nM
IC50 (HH): > 2000 nM
IC50 (K5): 229 nM
IC50 (KARPAS-45): 148 nM
IC50 (LAN-6): > 2000 nM
IC50 (LB771-HNC): > 2000 nM
IC50 (LNCaP-Clone-FGC): > 2000 nM
IC50 (LS-1034): > 2000 nM
IC50 (ML-2): 227 nM
IC50 (MMAC-SF): > 2000 nM
IC50 (MOLT-16): > 2000 nM
IC50 (MZ2-MEL): > 2000 nM
IC50 (NB5): > 2000 nM
IC50 (NB69): > 2000 nM
IC50 (NCI-H1155): > 2000 nM
IC50 (NCI-H1304): > 2000 nM
IC50 (NCI-H1581): > 2000 nM
IC50 (NCI-H1648): > 2000 nM
IC50 (NCI-H720): 16.8 nM
IC50 (NCI-H82): > 2000 nM
IC50 (NMC-G1): > 2000 nM
IC50 (OMC-1): > 2000 nM
IC50 (P30-OHK): > 2000 nM
IC50 (RPMI-8226): > 2000 nM
IC50 (Ramos-2G6-4C10): > 2000 nM
IC50 (SBC-1): 236 nM
IC50 (SCH): > 2000 nM
IC50 (SF-268): > 2000 nM
IC50 (SK-N-FI): > 2000 nM
IC50 (SK-UT-1): > 2000 nM
IC50 (SW872): > 2000 nM
IC50 (A388): > 2000 nM
IC50 (ALL-PO): > 2000 nM
IC50 (TE-6): > 2000 nM
IC50 (TE-9): > 2000 nM
IC50 (CAS-1): > 2000 nM

CN(NC(=O)CC(=O)NN(C)C(=S)c1ccccc1)C(=S)c1ccccc1 [ELESCLOMOL]
IC50 (COLO-824): 71.8 nM
IC50 (COR-L88): > 200 nM
IC50 (D-263MG): > 200 nM
IC50 (D-502MG): 25.8 nM
IC50 (DJM-1): 54.3 nM
IC50 (ES6): 40 nM
IC50 (ES7): 3.59 nM
IC50 (ES8): 1.32 nM
IC50 (EW-1): 5.24 nM
IC50 (EW-16): 1.61 nM
IC50 (GR-ST): > 200 nM
IC50 (HCC1187): 79.3 nM
IC50 (HCE-T): 4.45 nM
IC50 (HH): > 200 nM
IC50 (K5): 7 nM
IC50 (KARPAS-45): > 200 nM
IC50 (LAN-6): 54.6 nM
IC50 (LB771-HNC): > 200 nM
IC50 (LNCaP-Clone-FGC): 7.73 nM
IC50 (LS-1034): > 200 nM
IC50 (ML-2): > 200 nM
IC50 (MMAC-SF): 84.3 nM
IC50 (MOLT-16): 4.53 nM
IC50 (MZ2-MEL): > 200 nM
IC50 (NB5): 30.7 nM
IC50 (NB69): 1.22 nM
IC50 (NCI-H1155): 46.2 nM
IC50 (NCI-H1304): > 200 nM
IC50 (NCI-H1581): 24.6 nM
IC50 (NCI-H1648): > 200 nM
IC50 (NCI-H720): 124 nM
IC50 (NCI-H82): > 200 nM
IC50 (NMC-G1): 20.4 nM
IC50 (OMC-1): 77.1 nM
IC50 (P30-OHK): > 200 nM
IC50 (RPMI-8226): 46 nM
IC50 (Ramos-2G6-4C10): 12 nM
IC50 (SBC-1): 35.1 nM
IC50 (SCH): > 200 nM
IC50 (SF-268): 12.9 nM
IC50 (SK-N-FI): 81.5 nM
IC50 (SK-UT-1): 14.1 nM
IC50 (SW872): > 200 nM
IC50 (A388): > 200 nM
IC50 (ALL-PO): > 200 nM
IC50 (TE-6): 139 nM
IC50 (TE-9): 117 nM
IC50 (CAS-1): 116 nM
